Results from patent US11208405B2, “Pyrrole derivatives as PLK1 inhibitors” (SENTINEL ONCOLOGY LIMITED, priority 2017, dated 2021).
Structures can show the parent of a compound that is named as a salt.

Tested on: HCT116 cells
Assay: Effects on HCT116 colorectal cancer cell viability (cell titre blue, 72 hours)
Type: cell-based
Conditions: Homo sapiens, HCT-116, HCT116 cell line
Experimental: Assay to Measure the Effects of Compounds of the Invention on HCT116 Colorectal Cancer Cell Viability
The following protocol was used to measure the effects of compounds of the invention on HCT116 cell viability.
1. HCT116 cells were grown in RPM11640 media supplemented with Glutamax and 10% FBS in a 37° C./5% CO2 incubator.
2. Growing culture of HCT116 cells were trypsinised, counted and diluted to give 10,000 cells/mL in an appropriate volume, allowing at least 6 mL of cells per plate.
3. 200 μL of PBS were added to all the outer wells of a flat-bottomed (8×12) 96-well TC plate. 100 μL of media were added only to wells in column 11 of the plates (these wells provided a blank for the cell titre blue assay). Two compounds were assayed on each plate.
4. 100 ul of 10,000 cells/mL HCT116s were plated in rows B-G of each plate.
5. The cells were incubated (37° C. 5% CO2) for 24 hours before treating with compounds.
6. An 8 mM compound stock in DMSO was prepared for all compounds to be tested. 2.5 μL of the compound stock was added to 1000 μL growth medium in a 96-well deep well block and serial dilutions were prepared across the plate by transferring 500 μL into wells containing 500 μL growth medium+0.25% DMSO to give eight concentrations of compound (this ensured a constant amount of DMSO at all concentrations of compound). When making up growth medium+DMSO, an amount of 5 ml was allowed per compound to be diluted.
7. 3 rows of cells were treated with 100 μL/well from each row on the dilution plate so that each cell plate is treated with a single compound. This gave a final volume in all wells of 200 μL and a titration of compound from a final concentration of 10 uM down to 78 nM.
8. The cells were incubated (37° C. 5% CO2) for 72 hours.
9. 5 ul cell titre blue reagent (Promega) were added to all wells except the edge wells (which contain PBS only) and incubated (37° C. 5% CO2) for 2.5-3 hours.
10. Fluorescence was measured on a suitable plate reader using a 530-570 nm filter set for excitation and a 580-620 nm filter set for fluorescence emission.
11. Data were analysed using an appropriate graphing package (such as GraphPad Prism). Data were expressed as the concentration of compound causing a 50% inhibition of cell viability or GI50.

SMILES | GI50
COc1ccc(C(=O)NCCN(C)C)cc1-c1ccc(-c2ccc(Br)cc2)n1-c1ccccc1 [Example 20, hydrochloride] | 3940 nM
CN(C)[C@@H]1CCN(C(=O)c2cccc(-c3ccc(-c4ccc(Br)cc4)n3-c3ccccc3C(F)(F)F)c2)C1 [Example 54, hydrochloride] | 1380 nM
COCc1ccccc1-n1c(-c2ccc(Br)cc2)ccc1-c1ccc(C(=O)NCCN(C)C)cc1 [Example 50] | 2180 nM
COc1ccc(C(=O)NCCN(C)C)cc1-c1ccc(-c2ccc(Br)cc2)n1-c1ccccc1C(F)(F)F [Example 52, hydrochloride] | 350 nM
CN(C)[C@H]1CCN(C(=O)c2cccc(-c3ccc(-c4ccc(Br)cc4)n3-c3ccccc3C(F)(F)F)c2)C1 [Example 55, hydrochloride] | 2250 nM
CN(C)CCNC(=O)c1ccc(-c2[nH]nc(-c3ccc(Cl)cc3)c2-c2ccccc2C(F)(F)F)cc1 [Example 93, 4-[3-(4-chlorophenyl)-4-[2-(trifluoromethyl)phenyl]-1H-pyrazol-5-yl]-N-[2-(dimethylamino)ethyl] Benzamide Hydrochloride] | 260 nM
CN(C)CCNC(=O)c1ccc(-c2onc(-c3ccc(Cl)cc3)c2-c2ccccc2C(F)(F)F)cc1 [Example 92, Hydrochloride] | 30 nM
CN(C)CCOCc1ccc(-c2ccc(-c3ccc(Br)cc3)n2-c2ccccc2C(F)(F)F)cc1 [Example 45, 2-[[4-[5-(4-Bromophenyl)-1-[2-(trifluoromethyl)phenyl]pyrrol-2-yl]phenyl]methoxy]-N,N-dimethyl-ethanamine Hydrochloride] | 350 nM
COc1cc(C(=O)NCCN(C)C)ccc1-c1ccc(-c2ccc(Br)cc2)n1-c1ccccc1C(F)(F)F [Example 32, hydrochloride] | 60 nM
CN(C)CCNS(=O)(=O)c1ccc(-c2ccc(-c3ccc(Br)cc3)n2-c2ccccc2C(F)(F)F)cc1 [Example 44, 4-[5-(4-Bromophenyl)-1-[2-(trifluoromethyl)phenyl]pyrrol-2-yl]-N-[2-(dimethylamino)ethyl]benzenesulfonamide Hydrochloride] | 510 nM
CN(C)CCNC(=O)c1ccc(-c2ccc(-c3ccc(Cl)cc3)n2-c2ccccc2C(F)(F)F)s1 [Example 99, hydrochloride] | 40 nM
CN(C)CCNC(=O)c1ccc(-c2ccc(-c3ccccc3)n2-c2ccccc2C(F)(F)F)cc1Cl [Example 39, hydrochloride] | 350 nM
O=C(O)Cc1ccc(-c2ccc(-c3ccc(Br)cc3)n2-c2ccccc2C(F)(F)F)cc1 [Example 47, 2-[4-[5-(4-Bromophenyl)-1-[2-(trifluoromethyl)phenyl]pyrrol-2-yl]phenyl]acetic Acid] | 1380 nM
COc1cc(-c2ccc(-c3ccc(Br)cc3)n2-c2ccccc2C(F)(F)F)ccc1C(=O)NCCCN(C)C [Example 31, hydrochloride] | 1450 nM
NS(=O)(=O)c1ccc(-c2ccc(-c3ccc(Br)cc3)n2-c2ccccc2C(F)(F)F)cc1 [Example 65, 4-[5-(4-bromophenyl)-1-[2-(trifluoromethyl)phenyl]pyrrol-2-yl]benzenesulfonamide] | 1960 nM
CN(C)CCNC(=O)c1ccc(-c2ccc(-c3ccc(Cl)cc3)n2-c2cnccc2C(F)(F)F)c(F)c1 [Example 89, hydrochloride] | 1360 nM
CN(C)CCCNC(=O)c1ccc(-n2ncc(-c3ccc(Cl)cc3)c2-c2ccccc2C(F)(F)F)cc1 [Example 105, hydrochloride] | 100 nM
CN(C)CCNC(=O)c1ccc(-c2ccc(-c3ccccc3)n2-c2cnccc2C(F)(F)F)c(Cl)c1 [Example 67, hydrochloride] | 70 nM
CN(C)CCNC(=O)c1ccc(-c2ccc(-c3ccc(F)cc3F)n2-c2ccccc2C(F)(F)F)cc1 [Example 43] | 200 nM
CN(C)CCNC(=O)c1ccc(-n2ncc(-c3ccc(F)cc3)c2-c2ccccc2C(F)(F)F)cc1 [Example 106, hydrochloride] | 80 nM
CN(C)CCNC(=O)c1ccc(-c2ccc(-c3ccc(Br)cc3)n2-c2ccccc2C(F)(F)F)nc1 [Example 29, 6-[5-(4-Bromophenyl)-1-[2-(trifluoromethyl)phenyl]pyrrol-2-yl]-N-[2-(dimethylamino)ethyl]pyridine-3-carboxamide Hydrochloride] | 60 nM
CN(C)CCNC(=O)c1ccc(-c2ccc(-c3ccc(Br)cc3)n2-c2ccccc2C(F)(F)F)cc1Cl [Example 38] | 190 nM
CN(C)CCC(=O)Nc1ccc(-c2ccc(-c3ccc(Br)cc3)n2-c2ccccc2C(F)(F)F)cc1 [Example 46, N-[4-[5-(4-Bromophenyl)-1-[2-(trifluoromethyl)phenyl]pyrrol-2-yl]phenyl]-3-(dimethylamino) propanamide Hydrochloride] | 160 nM
CN(C)CCCNc1cccc(-c2ccc(-c3ccc(Br)cc3)n2-c2ccccc2C(F)(F)F)c1 [Example 16, N-[3-[5-(4-Bromophenyl)-1-[2-(trifluoromethyl)phenyl]pyrrol-2-yl]phenyl]-N′,N′-dimethyl-propane-1,3-diamine Hydrochloride] | 2720 nM
CN(C)CCNC(=O)c1cccc(-c2ccc(-c3ccc(F)cc3)n2-c2ccccc2C(F)(F)F)c1 [Example 5, hydrochloride] | 560 nM

Results, then the compound that gave them:

GI50 | SMILES
1640 nM | CC(C)Cc1ccc(C(F)(F)F)c(-n2c(-c3ccc(Cl)cc3)ccc2-c2ccc(C(=O)NCCN(C)C)cc2)c1 [Example 63, hydrochloride]
60 nM | CN(C)CCN(C)C(=O)c1ccc(-c2ccc(-c3ccc(Cl)cc3)n2-c2ccccc2C(F)(F)F)cc1 [Example 83, hydrochloride]
490 nM | CN1CCN(C(=O)c2ccc(-c3ccc(-c4ccc(Cl)cc4)n3-c3ccccc3C(F)(F)F)cc2)CC1 [Example 85, hydrochloride]
30 nM | O=C(NCCN[C@H]1CCOC1)c1ccc(-c2ccc(-c3ccc(Cl)cc3)n2-c2cnccc2C(F)(F)F)cc1 [Example 96]
240 nM | CN(C)CCCNC(=O)c1ccc(-c2ccc(-c3ccc(Cl)cn3)n2-c2ccccc2C(F)(F)F)cc1 [Example 76, hydrochloride]
3830 nM | CN(C)CCNC(=O)c1ccc(-c2ccc(-c3ccc(Cl)cc3)n2-c2ncccc2C(F)(F)F)cc1 [Example 79, hydrochloride]
250 nM | CN1CCN(CCNC(=O)c2ccc(-c3ccc(-c4ccc(Cl)cc4)n3-c3ccccc3C(F)(F)F)cc2)CC1 [Example 88, hydrochloride]
3630 nM | CN(C)CCNC(=O)c1ccc(-c2ccc(-c3ccc(Cl)cc3)n2-c2cccc(C(F)(F)F)c2)cc1 [Example 77, hydrochloride]
2130 nM | CN(C)CCCNC(=O)c1ccc(-c2ccc(-c3ccc(Cl)cc3)n2-c2cccc(C(F)(F)F)c2)cc1 [Example 78, hydrochloride]
50 nM | CN(C)CCNC(=O)c1ccc(-c2ccc(-c3ccc(Cl)cc3)n2-c2cnccc2C(F)(F)F)cc1 [Example 49, hydrochloride]
80 nM | O=C(NCCN1CCOCC1)c1ccc(-c2ccc(-c3ccc(Cl)cc3)n2-c2ccccc2C(F)(F)F)cc1 [Example 95, hydrochloride]
20 nM | CN(C)CCNC(=O)c1ccc(-c2ccc(-c3ccc(Cl)cc3)n2-c2ccc(Cl)cc2C(F)(F)F)cc1 [Example 98, hydrochloride]
190 nM | O=C(c1ccc(-c2ccc(-c3ccc(Cl)cc3)n2-c2ccccc2C(F)(F)F)cc1)N1CCNCC1 [Example 84, hydrochloride]
50 nM | NCCNC(=O)c1ccc(-c2ccc(-c3ccc(Cl)cc3)n2-c2ccccc2C(F)(F)F)cc1 [Example 94, hydrochloride]
40 nM | C[C@@H](CNC(=O)c1ccc(-c2ccc(-c3ccc(Cl)cc3)n2-c2ccccc2C(F)(F)F)cc1)N(C)C [Example 103]
100 nM | CN(C)CCCNC(=O)c1ccc(-c2ccc(-c3ccc(Cl)cc3)n2-c2cnccc2C(F)(F)F)cc1 [Example 51, hydrochloride]
4740 nM | O=C(O)c1ccc(-c2ccc(-c3ccc(Br)cc3)n2-c2ccccc2C(F)(F)F)cc1 [Example 27, 4-[5-(4-bromophenyl)-1-[2-(trifluoromethyl)phenyl]pyrrol-2-yl]benzoic acid]
410 nM | CN1CCN(Cc2ccc(-c3ccc(-c4ccc(Br)cc4)n3-c3ccccc3C(F)(F)F)cc2)CC1 [Example 48, hydrochloride]
60 nM | O=C(Cc1ccc(-c2ccc(-c3ccc(Cl)cc3)n2-c2ccccc2C(F)(F)F)cc1)NCCN1CCNCC1 [Example 101, hydrochloride]
340 nM | COCCNC(=O)c1ccc(-c2ccc(-c3ccc(Cl)cc3)n2-c2ccccc2C(F)(F)F)cc1 [Example 86, 4-[5-(4-chlorophenyl)-1-[2-(trifluoromethyl)phenyl]pyrrol-2-yl]-N-(2-methoxyethyl)benzamide]
